The values that follow come from patent US11541055B2, “Inhibitors of human immunodeficiency virus replication” (ViiV Healthcare UK (No. 5) LIMITED, priority 2018, dated 2023).

Series [1] in a line: Compound cytotoxicity, XTT-based colorimetric assay. The series is classed as cell-based. The settings on record: human; uninfected MT2 cells, day 4, XTT. The method in brief: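 Run under the antiviral-assay protocol but without virus. Viability was read on day 4 and CC50 values were derived from the readout.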
A general note: Tetrazolium assays rely on reduction of a dye to a coloured formazan, in cell work by metabolically active cells.

The subject of series [2] is recombinant NL4-3 virus (Renilla luciferase) in MT-2 cells. Briefly: HIV cell culture assay (antiviral activity, luciferase readout). It counts as cell-based. The conditions noted are these: Renilla, NL43. The method in brief:
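MT-2 cells were infected with recombinant NL4-3 virus carrying Renilla luciferase in place of part of nef. Cells were cultured 4–5 days with serially diluted compound, and luciferase was measured with a live-cell substrate. EC50 was calculated from the median effect equation.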

Some results are limits rather than exact numbers.

Compound `Cn1nc(NS(C)(=O)=O)c2c(Cl)ccc(-n3c([C@H](Cc4cc(F)cc(F)c4)NC(=O)Cn4nc(C(F)F)c5c4C(F)(F)[C@@H]4C[C@H]54)nc4cc(-c5ccnnc5)ccc4c3=O)c21` (atropisomer, axis not shown; (P)) [Example 31, N—((S)-1-((3P)-3-(4-chloro-1-methyl-3-(methylsulfonamido)-1H-indazol-7-yl)-4-oxo-7-(pyridazin-4-yl)-3,4-dihydroquinazolin-2-yl)-2-(3,5-difluorophenyl)ethyl)-2-((3bS,4aR)-3-(difluoromethyl)-5,5-difluoro-3b,4,4a,5-tetrahydro-1H-cyclopropa[3,4]cyclopenta[1,2-c]pyrazol-1-yl)acetamide] displayed a CC50 at 4 days in series [1] of over 500 nM. For the same compound, the EC50 in series [2] was determined as 0.29 nM.

For the compound `Cn1nc(NS(C)(=O)=O)c2c(Cl)ccc(-n3c([C@H](Cc4cc(F)cc(F)c4)NC(=O)Cn4nc(C(F)F)c5c4C(F)(F)[C@@H]4C[C@H]54)nc4cc(-c5cccc(S(=O)(=O)C(C)(C)C)c5)ccc4c3=O)c21` (atropisomer, axis not shown; (P)) [Example 33, N—((S)-1-(7-(3-(tert-butylsulfonyl)phenyl)-(3P)-3-(4-chloro-1-methyl-3-(methylsulfonamido)-1H-indazol-7-yl)-4-oxo-3,4-dihydroquinazolin-2-yl)-2-(3,5-difluorophenyl)ethyl)-2-((3bS,4aR)-3-(difluoromethyl)-5,5-difluoro-3b,4,4a,5-tetrahydro-1H-cyclopropa[3,4]cyclopenta[1,2-c]pyrazol-1-yl)acetamide], the CC50 at 4 days in series [1] was over 500 nM. The EC50 in series [2] worked out at 0.12 nM.

Compound `COc1cnc(-c2ccc3c(=O)n(-c4ccc(Cl)c5c(NS(C)(=O)=O)nn(C)c45)c([C@H](Cc4cc(F)cc(F)c4)NC(=O)Cn4nc(C(F)F)c5c4C(F)(F)[C@@H]4C[C@H]54)nc3c2)nc1` (atropisomer, axis not shown; (P)) [Example 34, N—((S)-1-((3P)-3-(4-chloro-1-methyl-3-(methylsulfonamido)-1H-indazol-7-yl)-7-(5-methoxypyrimidin-2-yl)-4-oxo-3,4-dihydroquinazolin-2-yl)-2-(3,5-difluorophenyl)ethyl)-2-((3bS,4aR)-3-(difluoromethyl)-5,5-difluoro-3b,4,4a,5-tetrahydro-1H-cyclopropa[3,4]cyclopenta[1,2-c]pyrazol-1-yl)acetamide] showed a CC50 at 4 days in series [1] of over 500 nM. For the same compound, the 50% effective concentration (EC50) in series [2] was 0.058 nM.

Turning to `Cn1nc(NS(C)(=O)=O)c2c(Cl)ccc(-n3c([C@H](Cc4cc(F)cc(F)c4)NC(=O)Cn4nc(C(F)F)c5c4C(F)(F)[C@@H]4C[C@H]54)nc4cc(-c5cccc(C(C)(C)C)n5)ccc4c3=O)c21` (atropisomer, axis not shown; (P)) [Example 35, N—((S)-1-(7-(6-(tert-butyl)pyridin-2-yl)-(3P)-3-(4-chloro-1-methyl-3-(methylsulfonamido)-1H-indazol-7-yl)-4-oxo-3,4-dihydroquinazolin-2-yl)-2-(3,5-difluorophenyl)ethyl)-2-((3bS,4aR)-3-(difluoromethyl)-5,5-difluoro-3b,4,4a,5-tetrahydro-1H-cyclopropa[3,4]cyclopenta[1,2-c]pyrazol-1-yl)acetamide], the CC50 at 4 days in series [1] was over 500 nM. In series [2], the half-maximal effective concentration (EC50) worked out at 0.97 nM.

For `CCc1cc(C)nc(-c2ccc3c(=O)n(-c4ccc(Cl)c5c(NS(C)(=O)=O)nn(C)c45)c([C@H](Cc4cc(F)cc(F)c4)NC(=O)Cn4nc(C(F)F)c5c4C(F)(F)[C@@H]4C[C@H]54)nc3c2)n1` (atropisomer, axis not shown; (P)) [Example 36, N—((S)-1-((3P)-3-(4-chloro-1-methyl-3-(methylsulfonamido)-1H-indazol-7-yl)-7-(4-ethyl-6-methylpyrimidin-2-yl)-4-oxo-3,4-dihydroquinazolin-2-yl)-2-(3,5-difluorophenyl)ethyl)-2-((3bS,4aR)-3-(difluoromethyl)-5,5-difluoro-3b,4,4a,5-tetrahydro-1H-cyclopropa[3,4]cyclopenta[1,2-c]pyrazol-1-yl)acetamide], the CC50 at 4 days in series [1] was over 500 nM. Moreover, in series [2], the EC50 stood at 0.087 nM.

In series [1], `Cc1cc(C(C)C)nc(-c2ccc3c(=O)n(-c4ccc(Cl)c5c(NS(C)(=O)=O)nn(C)c45)c([C@H](Cc4cc(F)cc(F)c4)NC(=O)Cn4nc(C(F)F)c5c4C(F)(F)[C@@H]4C[C@H]54)nc3c2)n1` (atropisomer, axis not shown; (P)) [Example 37, N—((S)-1-((3P)-3-(4-chloro-1-methyl-3-(methylsulfonamido)-1H-indazol-7-yl)-7-(4-isopropyl-6-methylpyrimidin-2-yl)-4-oxo-3,4-dihydroquinazolin-2-yl)-2-(3,5-difluorophenyl)ethyl)-2-((3bS,4aR)-3-(difluoromethyl)-5,5-difluoro-3b,4,4a,5-tetrahydro-1H-cyclopropa[3,4]cyclopenta[1,2-c]pyrazol-1-yl)acetamide] displayed a CC50 at 4 days of over 500 nM. Besides, in series [2], the EC50 amounted to 0.16 nM.

`CCc1cc(CC)nc(-c2ccc3c(=O)n(-c4ccc(Cl)c5c(NS(C)(=O)=O)nn(C)c45)c([C@H](Cc4cc(F)cc(F)c4)NC(=O)Cn4nc(C(F)F)c5c4C(F)(F)[C@@H]4C[C@H]54)nc3c2)n1` (atropisomer, axis not shown; (P)) [Example 38, N—((S)-1-((3P)-3-(4-chloro-1-methyl-3-(methylsulfonamido)-1H-indazol-7-yl)-7-(4,6-diethylpyrimidin-2-yl)-4-oxo-3,4-dihydroquinazolin-2-yl)-2-(3,5-difluorophenyl)ethyl)-2-((3bS,4aR)-3-(difluoromethyl)-5,5-difluoro-3b,4,4a,5-tetrahydro-1H-cyclopropa[3,4]cyclopenta[1,2-c]pyrazol-1-yl)acetamide]: in series [1], the CC50 at 4 days is over 500 nM. In addition, the EC50 in series [2] turned out to be 0.21 nM.

In the case of `COc1ncc(-c2ccc3c(=O)n(-c4ccc(Cl)c5c(NS(C)(=O)=O)nn(C)c45)c([C@H](Cc4cc(F)cc(F)c4)NC(=O)Cn4nc(C(F)F)c5c4C(F)(F)[C@@H]4C[C@H]54)nc3c2)cn1` (atropisomer, axis not shown; (P)) [Example 39, N—((S)-1-((3P)-3-(4-chloro-1-methyl-3-(methylsulfonamido)-1H-indazol-7-yl)-7-(2-methoxypyrimidin-5-yl)-4-oxo-3,4-dihydroquinazolin-2-yl)-2-(3,5-difluorophenyl)ethyl)-2-((3bS,4aR)-3-(difluoromethyl)-5,5-difluoro-3b,4,4a,5-tetrahydro-1H-cyclopropa[3,4]cyclopenta[1,2-c]pyrazol-1-yl)acetamide], in series [1], the CC50 at 4 days was over 500 nM. The EC50 in series [2] stood at 0.042 nM.

Compound `Cc1ncnc(C)c1-c1ccc2c(=O)n(-c3ccc(Cl)c4c(NS(C)(=O)=O)nn(C)c34)c([C@H](Cc3cc(F)cc(F)c3)NC(=O)Cn3nc(C(F)F)c4c3C(F)(F)[C@@H]3C[C@H]43)nc2c1` (atropisomer, axis not shown; (P)) [Example 40, N—((S)-1-((3P)-3-(4-chloro-1-methyl-3-(methylsulfonamido)-1H-indazol-7-yl)-7-(4,6-dimethylpyrimidin-5-yl)-4-oxo-3,4-dihydroquinazolin-2-yl)-2-(3,5-difluorophenyl)ethyl)-2-((3bS,4aR)-3-(difluoromethyl)-5,5-difluoro-3b,4,4a,5-tetrahydro-1H-cyclopropa[3,4]cyclopenta[1,2-c]pyrazol-1-yl)acetamide] had a CC50 at 4 days in series [1] of over 500 nM. Also, the EC50 in series [2] stood at 0.053 nM.

Regarding `Cn1nc(NS(C)(=O)=O)c2c(Cl)ccc(-n3c([C@H](Cc4cc(F)cc(F)c4)NC(=O)Cn4nc(C(F)F)c5c4C(F)(F)[C@@H]4C[C@H]54)nc4cc(-c5cccc(C6CC6)n5)ccc4c3=O)c21` (atropisomer, axis not shown; (P)) [Example 41, N—((S)-1-((3P)-3-(4-chloro-1-methyl-3-(methylsulfonamido)-1H-indazol-7-yl)-7-(6-cyclopropylpyridin-2-yl)-4-oxo-3,4-dihydroquinazolin-2-yl)-2-(3,5-difluorophenyl)ethyl)-2-((3bS,4aR)-3-(difluoromethyl)-5,5-difluoro-3b,4,4a,5-tetrahydro-1H-cyclopropa[3,4]cyclopenta[1,2-c]pyrazol-1-yl)acetamide], the CC50 at 4 days in series [1] was over 500 nM. Further, the EC50 in series [2] came to 0.33 nM.

In series [1], `Cc1ncncc1-c1ccc2c(=O)n(-c3ccc(Cl)c4c(NS(C)(=O)=O)nn(C)c34)c([C@H](Cc3cc(F)cc(F)c3)NC(=O)Cn3nc(C(F)F)c4c3C(F)(F)[C@@H]3C[C@H]43)nc2c1` (atropisomer, axis not shown; (P)) [Example 42, N—((S)-1-((3P)-3-(4-chloro-1-methyl-3-(methylsulfonamido)-1H-indazol-7-yl)-7-(4-methylpyrimidin-5-yl)-4-oxo-3,4-dihydroquinazolin-2-yl)-2-(3,5-difluorophenyl)ethyl)-2-((3bS,4aR)-3-(difluoromethyl)-5,5-difluoro-3b,4,4a,5-tetrahydro-1H-cyclopropa[3,4]cyclopenta[1,2-c]pyrazol-1-yl)acetamide] showed a CC50 at 4 days of over 500 nM. For the same compound, in series [2], the EC50 was 0.074 nM.

With `CCc1ccnc(-c2ccc3c(=O)n(-c4ccc(Cl)c5c(NS(C)(=O)=O)nn(C)c45)c([C@H](Cc4cc(F)cc(F)c4)NC(=O)Cn4nc(C(F)F)c5c4C(F)(F)[C@@H]4C[C@H]54)nc3c2)n1` (atropisomer, axis not shown; (P)) [Example 43, N—((S)-1-((3P)-3-(4-chloro-1-methyl-3-(methylsulfonamido)-1H-indazol-7-yl)-7-(4-ethylpyrimidin-2-yl)-4-oxo-3,4-dihydroquinazolin-2-yl)-2-(3,5-difluorophenyl)ethyl)-2-((3bS,4aR)-3-(difluoromethyl)-5,5-difluoro-3b,4,4a,5-tetrahydro-1H-cyclopropa[3,4]cyclopenta[1,2-c]pyrazol-1-yl)acetamide], the CC50 at 4 days in series [1] was over 500 nM. Further, in series [2], the EC50 was 0.058 nM.

Usually CC50 stands for the concentration that lowers cell viability or growth by half. A high value points to lower toxicity to the cells. For orientation: EC50 means the midpoint of the concentration-response curve.
